Laboratory results: patent US8541572B2
Like-named read-outs stand apart in the source and are kept apart here.

Tests used:
[1] = Area under the curve determination of plasma levels in rats (rrAUC); format: in vivo; settings: rat, oral 10 mg/kg
[2] = test system: TNF-α production in LPS-stimulated human whole blood; assay: Inhibition of TNF-α production from human whole blood (hWBA); format: cell-based; settings: LPS-stimulated human whole blood, read-out: hWBA
[3] = plasma 0.5-6 h post-dosing, read-out: RR AUC
[4] = IC50 for inhibition of TNF-α production
[5] = plasma 0.5-6 h, read-out: RR AUC (nM · h), rapid rat AUC (rrAUC)
[6] = Homo sapiens, IC50 for TNF-α production

| Structure (SMILES) | AUC [1, 3] [µM·h] | IC50 ([2]; IC50 for TNF-α production) [nM] | also measured |
| --- | --- | --- | --- |
| COc1ccc2c(c1)C(=O)N(C[C@@]1(C#Cc3ccc(C(N)C(F)(F)F)cc3)NC(=O)NC1=O)C2 (stereo partly shown) [Compound 300] | 2.6 | – | – |
| COc1ccc2c(c1)C(=O)N(C[C@@]1(C#Cc3ccc4c(c3)CN(C)C(=O)N4)NC(=O)NC1=O)C2 [Compound 306] | 0.012 | – | – |
| COc1ccc2c(c1)C(=O)N(C[C@@]1(C#Cc3ccc(C(O)C4CCN(C)CC4)cc3)NC(=O)NC1=O)C2 (stereo partly shown) [Compound 500] | 0.011 | – | IC50 [2, 4]: 244 nM |
| COc1ccc2c(c1)C(=O)N(C[C@@]1(C#Cc3ccc(-c4cc(N)n(C)n4)cc3)NC(=O)NC1=O)C2 [Compound 709] | 0.357 | – | – |
| COc1ccc2c(c1)C(=O)N(C[C@@]1(C#Cc3ccc4c(N)nn(C)c4c3)NC(=O)NC1=O)C2 [Compound 718] | 0.012 | – | – |
| COc1ccc2c(c1)C(=O)N(C[C@@]1(C#Cc3ccc4c(C)n[nH]c4c3)NC(=O)NC1=O)C2 [Compound 723] | 7.59 | – | IC50 [2, 4]: 2950 nM |
| COc1ccc2c(c1)C(=O)N(C[C@@]1(C#Cc3ccc4c(c3)c(N)nn4C)NC(=O)NC1=O)C2 [Compound 746] | 0.082 | – | – |
| CON=C(c1ccc(C#C[C@]2(CN3Cc4ccc(OC)cc4C3=O)NC(=O)NC2=O)cc1)N1CCOCC1 [Compound 932] | – | – | AUC [1, 5]: 3.17 µM·h |
| CCN1CCN(Cc2ccc(C#C[C@]3(CN4Cc5ccc(OC)cc5C4=O)NC(=O)NC3=O)cc2)CC1 [Compound 933] | – | 238 | AUC [1, 5]: 0.024 µM·h |
| COc1ccc2c(c1)C(=O)N(C[C@@]1(C#Cc3ccc(C(=NO)N4CCOCC4)cc3)NC(=O)NC1=O)C2 [Compound 941] | – | 100 | AUC [1, 5]: 0.058 µM·h |
| CCN1CCN(Cc2ccc(C#C[C@]3(CN4Cc5ccc(OC)c(F)c5C4=O)NC(=O)NC3=O)cc2)CC1 [Compound 974] | 0.034 | – | IC50 [2, 4]: 125 nM |
| COc1ccc2c(c1F)C(=O)N(C[C@@]1(C#Cc3ccc(C4(C)NC(=O)NC4=O)c(F)c3)NC(=O)NC1=O)C2 (stereo partly shown) [Compound 1302] | 5.64 | – | – |
| COc1ccc2c(c1F)C(=O)N(C[C@@]1(C#Cc3cncc(F)c3)NC(=O)NC1=O)C2 [Compound 1310] | 1.77 | – | – |
| COc1ccc2c(c1F)C(=O)N(C[C@@]1(C#Cc3ccc(C4(C(N)=O)CCN(C)CC4)cc3)NC(=O)NC1=O)C2 [Compound 1314] | 0.016 | – | IC50 [2, 4]: 152 nM |
| COc1ccc2c(c1)C(=O)N(C[C@@]1(C#Cc3nc(N4C[C@H](O)CC4=O)ccc3OC)NC(=O)NC1=O)C2 [Compound 1503] | 0.035 | – | – |
| COc1ccc2c(c1)C(=O)N(C[C@@]1(C#Cc3ccc(-c4noc(C(C)C)n4)cc3)NC(=O)NC1=O)C2 [Compound 1505] | 0.243 | – | – |
| COc1ccc2c(c1F)C(=O)N(C[C@@]1(C#Cc3ccc(C4(O)CCNCC4)cc3)NC(=O)NC1=O)C2 [Compound 1701] | 0.041 | – | – |
| COc1ccc2c(c1)C(=O)N(C[C@@]1(C#Cc3ccc(N4C(=O)CCC4C(=O)NC4CC4)cc3)NC(=O)NC1=O)C2 (stereo partly shown) [Compound 1902] | 0.025 | – | – |
| COc1ccc2c(c1F)C(=O)N(C[C@@]1(C#Cc3ccc(N4C(=O)CCC4C(=O)NC4CC4)cc3)NC(=O)NC1=O)C2 (stereo partly shown) [Compound 1904] | 0.213 | – | IC50 [2, 4]: 278 nM |
| COc1ccc2c(c1F)C(=O)N(C[C@@]1(C#Cc3ccc4c(c3)CCC43NC(=O)NC3=O)NC(=O)NC1=O)C2 (stereo partly shown) [Compound 2214] | 3.46 | – | IC50 [2, 4]: 186 nM |
| COc1ccc2c(c1)C(=O)N(C[C@@]1(C#Cc3ccc(-c4cc[nH]n4)nc3)NC(=O)NC1=O)C2 [Compound 2235] | 0.23 | – | IC50 [2, 4]: 231 nM |

| Structure (SMILES) | AUC [1, 3] [µM·h] | IC50 ([2]; IC50 for TNF-α production) [nM] | also measured |
| --- | --- | --- | --- |
| COc1ccc2c(c1)C(=O)N(C[C@@]1(C#Cc3ccc(C(=NO)c4ccc(F)cc4)cc3)NC(=O)NC1=O)C2 [Compound 2245] | 1.07 | – | IC50 ([2]; Homo sapiens, IC50 for inhibition of TNF-α production): 954 nM |
| COc1ccc2c(c1Cl)C(=O)N(CC1(C#Cc3cccnc3)NC(=O)NC1=O)C2 (stereo not shown) [Compound 2247] | 0.38 | – | IC50 [2, 4]: 1000 nM |
| COc1ccc2c(c1)C(=O)N(C[C@@]1(C#Cc3cc(Cl)cnc3N)NC(=O)NC1=O)C2 [Compound 2248] | 4.04 | – | – |
| COc1ccc2c(c1)C(=O)N(C[C@@]1(C#Cc3ccc(F)c(C(O)(O)C(F)(F)F)c3)NC(=O)NC1=O)C2 [Compound 2251] | – | – | AUC [1, 5]: 0.171 µM·h |
| COc1ccc2c(c1)C(=O)N(C[C@@]1(C#Cc3ccc(C(O)(O)C(F)(F)F)cc3)NC(=O)NC1=O)C2 [Compound 2252] | – | 258 | AUC [1, 5]: 0.768 µM·h |
| COc1ccc2c(c1)C(=O)N(C[C@@]1(C#Cc3ccc(-c4noc(C)n4)cc3)NC(=O)NC1=O)C2 [Compound 2253] | – | 2430 | AUC [1, 5]: 4.14 µM·h |
| COc1ccc2c(c1)C(=O)N(C[C@]1(C#Cc3cncc(C(=O)NN)c3)NC(=O)NC1=O)C2 [Compound 2256] | – | – | IC50 [2, 6]: 1000 nM |
| COc1ccc2c(c1)C(=O)N(C[C@@]1(C#Cc3ccc(C4(C)NC(=O)NC4=O)cc3C)NC(=O)NC1=O)C2 (stereo partly shown) [Compound 2257] | – | – | IC50 [2, 6]: 490 nM |
| COc1ccc2c(c1)C(=O)N(C[C@@]1(C#Cc3ccc(C4(C)NC(=O)NC4=S)cc3)NC(=O)NC1=O)C2 (stereo partly shown) [Compound 2258] | – | 398 | AUC [1, 5]: 0.438 µM·h |
| COc1ccc2c(c1)C(=O)N(C[C@@]1(C#Cc3ccc([C@H]4CCC(=O)N4)cc3)NC(=O)NC1=O)C2 [Compound 2259] | – | – | AUC [1, 5]: 0.126 µM·h |
| COc1ccc2c(c1)C(=O)N(C[C@@]1(C#Cc3ccc(C4(C(N)=O)CC4)cc3)NC(=O)NC1=O)C2 [Compound 2260] | – | 227 | – |
| CNC(=O)C1(c2ccc(C#C[C@]3(CN4Cc5ccc(OC)cc5C4=O)NC(=O)NC3=O)cc2)CC1 [Compound 2261] | – | 443 | – |
| COc1ccc2c(c1)C(=O)N(C[C@@]1(C#Cc3ccc(C(C)(C)C(N)=O)cc3)NC(=O)NC1=O)C2 [Compound 2262] | – | – | IC50 [2, 6]: 517 nM |
| COc1ccc2c(c1)C(=O)N(C[C@@]1(C#Cc3cccnc3-c3c(C)nn(C)c3C)NC(=O)NC1=O)C2 [Compound 2264] | – | 2540 | – |
| COc1ccc2c(c1)C(=O)N(C[C@@]1(C#Cc3cccnc3-c3cn[nH]c3)NC(=O)NC1=O)C2 [Compound 2266] | – | – | IC50 [2, 6]: 927 nM |
| COc1ccc2c(c1)C(=O)N(C[C@@]1(C#Cc3ccc(-c4cnn(C)c4)nc3)NC(=O)NC1=O)C2 [Compound 2269] | – | – | AUC [1, 5]: 0.924 µM·h |
| COc1ccc2c(c1)C(=O)N(C[C@@]1(C#Cc3cccnc3-c3cccnc3)NC(=O)NC1=O)C2 [Compound 2270] | – | – | IC50 [2, 6]: 2110 nM |
| COC(=O)C(c1ccc(C#C[C@]2(CN3Cc4ccc(OC)cc4C3=O)NC(=O)NC2=O)cc1)N1CCCNCC1 (stereo partly shown) [Compound 2271] | – | 566 | – |
| COc1ccc2c(c1)C(=O)N(C[C@@]1(C#Cc3ccc(CC4(C)NC(=O)NC4=O)cc3)NC(=O)NC1=O)C2 (stereo partly shown) [Compound 2281] | – | – | IC50 [2, 6]: 1000 nM |
| COC(=O)Cc1ccc(C#C[C@]2(CN3Cc4ccc(OC)cc4C3=O)NC(=O)NC2=O)cc1 [Compound 2284] | – | – | IC50 [2, 6]: 379 nM |
| COc1ccc2c(c1)C(=O)N(CC1(C#Cc3cccnc3N3CCN(C)CC3)NC(=O)NC1=O)C2 (stereo not shown) [Compound 2285] | – | – | IC50 [2, 6]: 1230 nM |

| Structure (SMILES) | AUC [1, 3] [µM·h] | IC50 ([2]; IC50 for TNF-α production) [nM] | also measured |
| --- | --- | --- | --- |
| COc1ccc2c(c1)C(=O)N(CC1(C#Cc3cccnc3NCCN(C)C)NC(=O)NC1=O)C2 (stereo not shown) [Compound 2286] | – | – | IC50 [2, 6]: 2000 nM |
| COc1ccc2c(c1)C(=O)N(C[C@@]1(C#Cc3cccnc3N3CCOCC3)NC(=O)NC1=O)C2 [Compound 2287] | – | – | IC50 [2, 6]: 633 nM |
| COc1ccc2c(c1)C(=O)N(C[C@@]1(C#Cc3ccc(NCCN(C)C)nc3)NC(=O)NC1=O)C2 [Compound 2289] | – | 419 | – |
| COc1ccc2c(c1)C(=O)N(C[C@@]1(C#Cc3cccnc3-c3cncnc3)NC(=O)NC1=O)C2 [Compound 2290] | – | 1590 | – |
| COc1ccc2c(c1)C(=O)N(C[C@@]1(C#Cc3cccnc3-c3ccncc3)NC(=O)NC1=O)C2 [Compound 2291] | – | 2260 | – |
| COc1ccc2c(c1)C(=O)N(C[C@@]1(C#Cc3ccc(-c4cn[nH]c4)nc3)NC(=O)NC1=O)C2 [Compound 2292] | – | 372 | – |
| COc1ccc2c(c1)C(=O)N(C[C@@]1(C#Cc3ccc(C(=NO)N4CCNC[C@@H]4C)cc3)NC(=O)NC1=O)C2 [Compound 2293] | – | 84 | – |
| COc1ccc2c(c1)C(=O)N(C[C@@]1(C#Cc3ccc(C(=NO)N4[C@H](C)CNC[C@@H]4C)cc3)NC(=O)NC1=O)C2 [Compound 2294] | – | 327 | – |
| COc1ccc2c(c1)C(=O)N(C[C@@]1(C#Cc3ccc(N4CCCCC4=O)cc3)NC(=O)NC1=O)C2 [Compound 2295] | – | – | IC50 [2, 6]: 1390 nM |
| COc1ccc2c(c1)C(=O)N(C[C@@]1(C#Cc3ccc(-c4cn[nH]c4N)cc3)NC(=O)NC1=O)C2 [Compound 2296] | – | – | IC50 [2, 6]: 236 nM |
| COc1ccc2c(c1)C(=O)N(CC1(C#Cc3cnc(N4CCC5(CC4)NC(=O)NC5=O)nc3N)NC(=O)NC1=O)C2 (stereo not shown) [Compound 2310] | – | 557 | – |
| COc1ccc2c(c1)C(=O)N(C[C@@]1(C#Cc3ccc(N4CCC5(CC4)NC(=O)NC5=O)nc3)NC(=O)NC1=O)C2 [Compound 2311] | – | – | IC50 [2, 6]: 348 nM |
| COc1ccc2c(c1)C(=O)N(C[C@@]1(C#Cc3ccc4c(c3)CC[C@]43NC(=O)NC3=O)NC(=O)NC1=O)C2 [Compound 2313] | – | – | AUC [1, 5]: 0.53 µM·h |
| COc1ccc2c(c1)C(=O)N(C[C@@]1(C#Cc3ccc4c(c3)CC[C@@]43NC(=O)NC3=O)NC(=O)NC1=O)C2 [Compound 2314] | – | – | AUC [1, 5]: 0.218 µM·h |
| CCN1CCN(C(=NO)c2ccc(C#C[C@]3(CN4CCc5cc(OC)ccc5C4=O)NC(=O)NC3=O)cc2)CC1 [Compound 2316] | – | 335 | – |
| COc1ccc2c(c1)CCN(C[C@@]1(C#Cc3ccc(C(=NO)N4CCCN(C)CC4)cc3)NC(=O)NC1=O)C2=O [Compound 2317] | – | 639 | – |
| COc1ccc2c(c1)C(=O)N(C[C@@]1(C#Cc3cccnc3)NC(=O)NC1=O)CC2 [Compound 2318] | – | 10000 | – |
| COc1ccc2c(c1)CCN(C[C@@]1(C#Cc3ccc(C(=NO)N4CCOCC4)cc3)NC(=O)NC1=O)C2=O [Compound 2319] | – | 1060 | – |
| COc1ccc2c(c1)CCN(C[C@@]1(C#Cc3ccc(C(=NO)N4CCN(C)CC4)cc3)NC(=O)NC1=O)C2=O [Compound 2320] | – | 261 | – |
| COc1ccc2c(c1)CCN(C[C@@]1(C#Cc3ccc4c(c3)CCCC43NC(=O)NC3=O)NC(=O)NC1=O)C2=O (stereo partly shown) [Compound 2321] | – | 1100 | – |
